Measured values: patent publication US4973704A, “Pyrrolyl intermediates in the synthesis of pyrrole analogs of mevalonolactone and derivatives thereof” (Sandoz Pharm. Corp., priority 1989, dated 1990)
Like-named read-outs stand apart in the source and are kept apart here.

What was measured:
[1] = test system: 3β-hydroxysterol synthesis; assay: Test B. In Vivo Cholesterol Biosynthesis Inhibition Test; settings: Rattus norvegicus, po; rats, orally administered; read-out: ED50 (dose producing 50% inhibition of 3β-hydroxysterol synthesis)
Protocol: Test B. In Vivo Cholesterol Biosynthesis Inhibition Test:
In this test the rats are orally administered the test substance (compound of Formula I) at a dose of 0.1-200 mg/kg. body weight. The obtained ED50 is the dose of the test substance observed or calculated to produce a 50% inhibition of 3β-hydroxysterol synthesis.

HMG-CoA reductase = molecular target: T1, HMG-CoA reductase (Rattus norvegicus, UniProt P51639); assay: Test A. In Vitro Microsomal Assay of HMG-CoA Reductase Inhibition; type: biochemical
T1 construct: from tissue; host or cells: microsomes (printed)
T1 sequence (P51639 1-887): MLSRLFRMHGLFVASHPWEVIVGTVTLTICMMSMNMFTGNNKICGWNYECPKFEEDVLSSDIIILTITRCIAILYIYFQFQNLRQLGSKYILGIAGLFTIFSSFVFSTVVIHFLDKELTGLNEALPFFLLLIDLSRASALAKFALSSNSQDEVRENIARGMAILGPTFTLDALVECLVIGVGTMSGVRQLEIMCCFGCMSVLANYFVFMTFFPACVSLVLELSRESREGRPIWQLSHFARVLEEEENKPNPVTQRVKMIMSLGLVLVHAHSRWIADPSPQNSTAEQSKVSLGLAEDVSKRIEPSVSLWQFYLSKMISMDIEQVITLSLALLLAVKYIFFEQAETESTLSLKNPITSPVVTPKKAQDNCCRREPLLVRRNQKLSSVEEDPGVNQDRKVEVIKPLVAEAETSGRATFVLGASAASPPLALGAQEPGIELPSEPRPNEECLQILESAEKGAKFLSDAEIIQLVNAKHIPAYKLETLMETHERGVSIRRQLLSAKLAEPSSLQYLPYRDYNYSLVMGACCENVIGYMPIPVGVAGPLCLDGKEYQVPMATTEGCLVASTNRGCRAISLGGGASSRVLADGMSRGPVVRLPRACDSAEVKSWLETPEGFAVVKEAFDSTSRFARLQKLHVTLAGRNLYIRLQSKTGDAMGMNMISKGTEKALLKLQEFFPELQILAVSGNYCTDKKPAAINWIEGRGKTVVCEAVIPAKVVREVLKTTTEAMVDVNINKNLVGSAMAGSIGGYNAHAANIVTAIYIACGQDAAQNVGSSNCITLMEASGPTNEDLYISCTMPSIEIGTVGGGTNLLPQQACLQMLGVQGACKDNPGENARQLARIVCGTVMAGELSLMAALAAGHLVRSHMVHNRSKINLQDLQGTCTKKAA
Protocol: Test A. In Vitro Microsomal Assay of HMG-CoA Reductase Inhibition:
This test is carried out precisely as described in column 53 of U.S. Pat. No. 4,613,610 and on page 30 of World (PCT) Published Patent Application No. 84/02131, both of which are hereby incorporated by reference as if set forth herein in their entirety. The concentration of the test substance (compound of Formula I) in the assay system is 0.0005-2,000 μmolar. The obtained IC50 is the concentration of the test substance in the assay system observed or calculated to produce a 50% inhibition of HMG-CoA reductase activity.

[2] = in vitro microsomal assay, read-out: IC50 (concentration producing 50% inhibition of HMG-CoA reductase activity)

CC(C)c1cc(-c2ccccc2)n(-c2ccc(F)cc2)c1/C=C/[C@@H](O)C[C@@H](O)CC(=O)O (relative stereo) [Example 2, Sodium (±)-erythro-(E)-3,5-dihydroxy-7-[1'-(4"-fluorophenyl)-3'-(1"-methylethyl)-5'-phenyl-1H-pyrrol-2'-yl]hept-6-enoate]
ED50 [1]: 0.53 mg/kg | IC50 (HMG-CoA reductase; [2]): 14 nM

CC[C@H](C)C(=O)O[C@H]1CCC=C2C=C[C@H](C)[C@H](CC[C@@H]3C[C@@H](O)CC(=O)O3)[C@H]21 [Compactin]
IC50 (HMG-CoA reductase; [2]): 1100 nM

CC[C@H](C)C(=O)O[C@H]1C[C@@H](C)C=C2C=C[C@H](C)[C@H](CC[C@@H]3C[C@@H](O)CC(=O)O3)[C@H]21 [Mevinolin]
IC50 (HMG-CoA reductase): 720 nM
